Results as given in publication PMC6151740, “Pharmacokinetics, Tissue Distribution, and Elimination of Three Active Alkaloids in Rats after Oral Administration of the Effective Fraction of Alkaloids from Ramulus Mori, an Innovative Hypoglycemic Agent” (Molecules : A Journal of Synthetic Chemistry and Natural …, 2017).
Read-outs that look alike come from different tables or passages of the source. Blank lines part the entries; values can stand above or below the compound they belong to.

Key:
[1] = DNJ 110 mg/kg ingested; cited from earlier work
[2] = Plasma pharmacokinetic study in rats after oral and intravenous administration of SZ–A or purified DNJ; type: in vivo, rat; settings: for AUC(0-inf) / AUC(0-t) / Tmax / half-life / clearance / MRT last / MRT inf / Vd / Cmax / CLz: rat plasma, n = 5; for clearance: read-out: CLz (converted); for MRT last: read-out: MRT0–t; for MRT inf: read-out: MRT0–∞; for bioavailability: plasma, read-out: F (oral absolute bioavailability); for bioavailability / time to reach maximum plasma concentration (Cmax) / average AUC of DNJ in the SZ–A group relative to the DNJ group: rat; for time to reach maximum plasma concentration (Cmax): after oral administration of SZ–A (40, 200, 1000 mg/kg), upper bound over doses
Protocol: The oral dosing solutions used for all animal studies were prepared by dissolving in water. Thirty rats weighed 250–270 g after acclimation were randomly divided into six groups of five animals each. For oral administration, rats were treated with SZ–A (40, 200, 1000 mg/kg) or purified DNJ (15 mg/kg) dissolve in water. Blood samples (about 0.25 mL) were collected via the postorbital venous plexus veins under ether anesthesia into heparinized polythene tubes before dosing and at 0.08, 0.17, 0.33, 0.50, 1, 2, 3, 4, 6, 8, 12, 24 and 36 h after drug administration. For intravenous dosing, rats were given SZ–A (4 mg/kg) or DNJ (1.5 mg/kg) dissolved in normal saline solution through the tail vein. Then blood samples were collected at 0.03, 0.08, 0.17, 0.33, 0.67, 1, 2, 4, 6, 8, 12, 24, and 36 h under similar conditions. Considering the physical limit of blood in rats, during the process of the pharmacokinetic experiment, each rat was received 0.25 mL of sterile isotonic saline at each time point after blood sampling for compensation of body fluid loss, and the blood loss was also corrected at a definite degree. Plasma was separated by centrifuging the blood samples at 1660× g for 5 min and stored at −20 °C until LC-MS/MS analysis. Data fitting and pharmacokinetic parameter estimates were carried out using non–compartmental analysis via WinNonlin Software (version 6.1, Pharsight Corporation, Mountain View, CA, USA). F was calculated according to the formula: F (%) = (AUC oral/AUC i.v.) × (dose i.v./dose oral) × 100.
The plasma, feces, urine, and bile samples (100 μL) were added to 1 μL of Tris aqueous solution (2 M), 10 μL of IS working solution (2 μg/mL), and 190 μL methanol–acetonitrile (25:75, v/v). The incubation supernatant samples (300 μL) were mixed with 1 μL Tris aqueous solution (2 M) and 10 μL of IS working solution (2 μg/mL). All mixtures were vortexed for 30 s followed by centrifugation at 18,880× g for 5 min, twice.
Briefly, the LC-MS/MS instrument consisted of a 1260 HPLC system (Agilent, Santa Clara, CA, USA) and API4000 triple quadrupole mass spectrometer (Applied Biosystems Sciex, Toronto, ON, Canada) with an electrospray ionization (ESI) source and Analyst software (version 1.5.2, Applied Biosystems Sciex, Toronto, ON, Canada) for data acquisition and processing. DNJ, FGM, DAB, and IS were separated in a Xbridge amide™ column (3.5 μm, 4.6 mm × 150 mm; Waters, Milford, MA, USA) with a gradient mobile phase of acetonitrile-water (0.1% ammonium hydroxide) at a flow rate of 0.7 mL/min. An ESI source was used in the positive ion mode. The optimized mass spectrometric condition was as follows: ion spray voltage, 5500 V; collision gas, 6 psi; curtain gas, 20 psi; ion source gas 1 (GS1), 45 psi; ion source gas 2 (GS2), 45 psi; temperature, 450 °C. The multiple reaction monitoring (MRM) transitions of DNJ, FGM, DAB, and IS were m/z 164.0→110.1 (declustering potential (DP) 50 V, collision energy (CE) 22 V, collision cell exit potential (CXP) 10 V), 148.0→112.1 (DP 66 V, CE 21 V, CXP 10 V), 134.0→98.0 (DP 60 V, CE 20 V, CXP 10 V) and 208.0→146.1 (DP 50 V, CE 27 V, CXP 10 V), respectively.

[3] = In situ single-pass intestinal perfusion (rat jejunum, mesenteric vein blood); type: in vivo; settings: by 60 min, n = 5
Protocol: The surgical procedures were similar to those described elsewhere. The Hank’s balanced salt solution (HBSS, pH = 7.4) with SZ–A (21.73 μg/mL) or DNJ (50 μM) at 37 °C was infused into the jejunum at 0.3 mL/min individually. Phenol Red (50 μM) was added to serve as a nonabsorbable marker for measuring water flux. The blood from mesenteric vein and perfusate were collected at five-minute intervals. The plasma was separated by centrifugation and perfusate were immediately frozen at −20 °C for LC-MS/MS analysis. Atenolol and propranolol, the low- and high-permeability markers, were used to check the integrity of the intestinal membrane.

[4] = Sprague-Dawley, iv, SZ–A 4 mg/kg i.v.
[5] = Sprague-Dawley, iv, SZ–A 4 mg/kg i.v., read-out: Vd
[6] = Sprague-Dawley, iv, purified DNJ 1.5 mg/kg i.v.
[7] = Sprague-Dawley, po, SZ–A 40 mg/kg p.o. vs SZ–A 4 mg/kg i.v.
[8] = Sprague-Dawley, po, SZ–A 200 mg/kg p.o. vs SZ–A 4 mg/kg i.v.
[9] = Sprague-Dawley, po, SZ–A 1000 mg/kg p.o. vs SZ–A 4 mg/kg i.v.
[10] = Sprague-Dawley, po, SZ–A 40 mg/kg p.o.
[11] = Sprague-Dawley, po, SZ–A 200 mg/kg p.o.
[12] = Sprague-Dawley, po, SZ–A 1000 mg/kg p.o.
[13] = Sprague-Dawley, po, purified DNJ 15 mg/kg p.o.

- AUC(0-inf) [2, 4]: 1400 ± 175 ng·h/mL
- AUC(0-t) [2, 4]: 1400 ± 174 ng·h/mL
- Tmax [2, 4]: 1.98 min
- half-life [2, 4]: 17.4 ± 4.8 min
- clearance [2, 4]: 18.1 mL/min/kg
- MRT last [2, 4]: 0.8 ± 0.5 h
- MRT inf [2, 4]: 0.82 ± 0.51 h
- Vd [2, 5]: 453 ± 130 mL/kg
- AUC(0-inf) [2, 6]: 1140 ± 108 ng·h/mL
- AUC(0-t) [2, 6]: 1130 ± 108 ng·h/mL
- Cmax [2, 6]: 4520 ± 576 ng/mL
- Tmax [2, 6]: 1.8 min
- half-life [2, 6]: 15 ± 3 min
- clearance [2, 6]: 22.2 mL/min/kg
- MRT last [2, 6]: 0.48 ± 0.08 h
- MRT inf [2, 6]: 0.5 ± 0.08 h
- Vd ([2]; Sprague-Dawley, iv, purified DNJ 1.5 mg/kg i.v., read-out: Vd): 486 ± 85.4 mL/kg
- bioavailability [2, 7]: 72.4%
- bioavailability [2, 8]: 38.6%
- bioavailability [2, 9]: 33.3%
- bioavailability ([2]; Sprague-Dawley, po, purified DNJ 15 mg/kg p.o. vs DNJ 1.5 mg/kg i.v.): 59.4%
- AUC(0-inf) [2, 10]: 10200 ng·h/mL
- AUC(0-t) [2, 10]: 10100 ng·h/mL
- Cmax [2, 10]: 6370 ± 1120 ng/mL
- Tmax [2, 10]: 40.2 ± 17.4 min
- half-life [2, 10]: 78 ± 15 min
- MRT last [2, 10]: 1.71 ± 0.67 h
- MRT inf [2, 10]: 1.78 ± 0.69 h
- AUC(0-inf) [2, 11]: 27000 ng·h/mL
- AUC(0-t) [2, 11]: 27000 ng·h/mL
- Cmax [2, 11]: 10500 ng/mL
- Tmax [2, 11]: 40.2 ± 12 min
- half-life [2, 11]: 127 ± 28.2 min
- MRT last [2, 11]: 2.63 ± 0.48 h
- MRT inf [2, 11]: 2.71 ± 0.49 h
- AUC(0-inf) [2, 12]: 117000 ng·h/mL
- AUC(0-t) [2, 12]: 116000 ng·h/mL
- Cmax [2, 12]: 25100 ng/mL
- Tmax [2, 12]: 25.8 ± 5.4 min
- half-life [2, 12]: 211 ± 51 min
- MRT last [2, 12]: 5.12 ± 1.48 h
- MRT inf [2, 12]: 5.25 ± 1.53 h
- AUC(0-t) [2, 13]: 6730 ± 1150 ng·h/mL
- Cmax [2, 13]: 4860 ± 1120 ng/mL
- Tmax [2, 13]: 40.2 ± 17.4 min
- half-life [2, 13]: 52.8 ± 8.4 min
- MRT last [2, 13]: 1.77 ± 0.25 h
- MRT inf [2, 13]: 1.85 ± 0.21 h
- CLz ([2]; SZ–A 40 mg/kg p.o.): 1500.8 ± 195.5 mL/h/kg
- Vd ([2]; SZ–A 40 mg/kg p.o.): 2830.1 ± 741.1 mL/kg
- CLz ([2]; SZ–A 200 mg/kg p.o.): 2823.7 ± 401.6 mL/h/kg
- Vd ([2]; SZ–A 200 mg/kg p.o.): 8617.8 ± 2317.5 mL/kg
- CLz ([2]; SZ–A 1000 mg/kg p.o.): 3242.7 ± 298.1 mL/h/kg
- Vd ([2]; SZ–A 1000 mg/kg p.o.): 16,468.3 ± 4217.0 mL/kg
- CLz ([2]; purified DNJ 15 mg/kg p.o.): 2261.6 ± 382.4 mL/h/kg
- time to reach maximum plasma concentration (Cmax) [2]: ≤ 0.67 h
- average AUC of DNJ in the SZ–A group relative to the DNJ group ([2]; intravenous injection, SZ–A 4 mg/kg vs purified DNJ 1.5 mg/kg): 1.2 fold
- average AUC of DNJ in the SZ–A group relative to the DNJ group ([2]; oral administration, SZ–A 40 mg/kg vs purified DNJ 15 mg/kg): 1.5 fold
- cumulative amount per unit of area absorbed into the mesenteric venous blood ([3]; perfusion of SZ–A 21.73 μg/mL (containing 50 μM DNJ)): 2136.1 pmol/cm^2
- cumulative amount per unit of area absorbed into the mesenteric venous blood ([3]; perfusion of purified DNJ 50 μM): 1787.1 pmol/cm^2
Structure (SMILES): OC[C@H]1NC[C@H](O)[C@@H](O)[C@@H]1O [DNJ, 1-deoxynojirimycin]
- fraction of ingested DNJ incorporated into the rat plasma [1]: 1%

Structure (SMILES): OC[C@H]1NCC[C@@H](O)[C@@H]1O [FGM, fagomine]
- AUC(0-inf) [2, 4]: 284 ± 36.7 ng·h/mL
- AUC(0-t) [2, 4]: 278 ± 36.8 ng·h/mL
- Cmax [2, 4]: 1240 ± 304 ng/mL
- Tmax [2, 4]: 1.98 min
- half-life [2, 4]: 13.8 ± 1.8 min
- clearance [2, 4]: 15.4 mL/min/kg
- MRT last [2, 4]: 0.26 ± 0.06 h
- MRT inf [2, 4]: 0.3 ± 0.06 h
- Vd [2, 5]: 308 ± 61 mL/kg
- bioavailability [2, 7]: 77.5%
- bioavailability [2, 8]: 38.5%
- bioavailability [2, 9]: 29.9%
- AUC(0-inf) [2, 10]: 2170 ± 770 ng·h/mL
- AUC(0-t) [2, 10]: 2160 ± 778 ng·h/mL
- Cmax [2, 10]: 1490 ± 756 ng/mL
- Tmax [2, 10]: 40.2 ± 17.4 min
- half-life [2, 10]: 55.8 ± 17.4 min
- MRT last [2, 10]: 1.41 ± 0.27 h
- MRT inf [2, 10]: 1.48 ± 0.34 h
- AUC(0-inf) [2, 11]: 5400 ± 1470 ng·h/mL
- AUC(0-t) [2, 11]: 5360 ± 1490 ng·h/mL
- Cmax [2, 11]: 2250 ± 1060 ng/mL
- Tmax [2, 11]: 34.2 ± 5.4 min
- half-life [2, 11]: 86.4 ± 9.6 min
- MRT last [2, 11]: 2.66 ± 0.52 h
- MRT inf [2, 11]: 2.78 ± 0.54 h
- AUC(0-inf) [2, 12]: 21800 ng·h/mL
- AUC(0-t) [2, 12]: 20800 ng·h/mL
- Cmax [2, 12]: 4390 ± 2360 ng/mL
- Tmax [2, 12]: 78 ± 40.2 min
- half-life [2, 12]: 164 ± 69.6 min
- MRT last [2, 12]: 5.44 ± 1.77 h
- MRT inf [2, 12]: 6.15 ± 2.11 h
- CLz ([2]; SZ–A 40 mg/kg p.o.): 1317.9 ± 584.9 mL/h/kg
- Vd ([2]; SZ–A 40 mg/kg p.o.): 1894.0 ± 1357.8 mL/kg
- CLz ([2]; SZ–A 200 mg/kg p.o.): 2557.5 ± 786.6 mL/h/kg
- Vd ([2]; SZ–A 200 mg/kg p.o.): 5332.0 ± 1855.9 mL/kg
- CLz ([2]; SZ–A 1000 mg/kg p.o.): 3385.8 ± 1262.0 mL/h/kg
- Vd ([2]; SZ–A 1000 mg/kg p.o.): 14,243.4 ± 9987.6 mL/kg
- time to reach maximum plasma concentration (Cmax) [2]: ≤ 1.30 h
